Laboratory results published in US20080260644A1, “CHLORIDE TRANSPORT UPREGULATION FOR THE TREATMENT OF TRAUMATIC BRAIN INJURY” (priority 2005, published 2008).

Experiments:
[1] = test system: dentate granule cells; test: Gramicidin perforated patch recording of the membrane potential response to GABA in dentate granule cells in brain slices; type: cell-based, mouse
Experimental: Brain slices were prepared as previously reported (Witgen et al. (2005) Neuroscience, 133:1-15). Perforated patch recordings were conducted at room temperature from visually identified DG neurons using infrared differential interference contrast video microscopy (Stuart et al. (1993) Pflugers Arch., 423:511-8). Cells were voltage clamped at −60 mV, and signals were recorded and amplified with Axopatch 200 (Axon instruments, Foster city, CA), filtered at 2 kHz, digitized, and stored on a PC microcomputer for off line analysis. Electrodes were pulled to a resistance between 6 and 8 MΩ when filled with an internal solution composed of in (mM): 100 KCl, 10 Hepes, pH 7.4 (KOH), on a two stage puller (Sutter instruments, Novato, Calif.). Gramicidin (Sigma, St. Louis) was dissolved in dimethyllsulfuxide (DMSO, Sigma) (1-2 mg/ml) then diluted in the pipette filling solution (1:1000). Progress of membrane patch perforation was evaluated by following the decrease in access resistance (Ra) and recordings were begun once Ra had stabilized ([…]). Current-voltage (IV) relationships were generated using a voltage ramp (−110 to +40 ata rate of 107 mV/ms) in the absence and presence of agonist (GABA, 100 μM, applied 125 ms, 40-60 PSI using a Picospritzer II, General Valve Corporation, Fairfield, N.J.). For chloride fluorescence experiments, the internal solution was composed of (in mM) Kgluconate, 145; MgCl2, 2; BAPTA, 0.1; KCl, 2.5; NaCl, 2.5; HEPES, 10; GTP-Tris, 0.5; Mg-ATP, 2; pH 7.4 (KOH; Vhold=0 mV). For low K^+ experiments, KCl concentration was reduced from 3 to 1 mM while the concentration of NaCl was increased to maintain tonicity.
In order to investigate the functional consequences of reduced KCC2 expression in DG from injured animals, gramacidin perforated patch recordings were performed in dentate granule cells in brain slices derived from sham and FPI animals. Current-voltage (1-V) relationships were created using a voltage ramp that stepped the membrane voltage from a holding potential of −60 mV to −110 mV for 200 ms and then ramped the voltage from −110 to +40 mV at a rate of 107 mV/msec. I-V relationships were plotted by subtracting ramp currents recorded in control solution (aCSF) from currents recorded in the presence of ionophoresed agonist (GABA 100 μm) in brain slices from both sham (FIG. 2A) and FPI (FIG. 2B) animals. […] Mean EGABA values were −72±4.3 (n=7) in sham slices and −51±4.0 mV (n=16) in FPI slices. To ensure that the perforated patch configuration remained intact during the experiment, in several dentate granule cells (recorded in slices from both sham and injured animals) the patch was subsequently ruptured to enter into the whole cell configuration. […]

[2] = test system: dentate gyrus; test: Dentate gyrus throughput index (TI), voltage sensitive dye fluorescence in hippocampal slices; type: cell-based, mouse
Source text: Slices were stimulated in the perforant pathway with one theta burst stimulation (TBS) (5 pulses of 50 μA at 100 Hz). Circles (kernels) represent average fluorescent signals in the DG and hilus respectively. FIG. 5B is a graph of the percent throughput of sham and injured (LFPI) mice.
Normal hippocampal function is directly determined by a balance between neuronal excitation and inhibition. Within the hippocampus there are three interconnected subregions referred to collectively as the ‘Trisynaptic Circuit.’ This circuit consists of the dentate gyrus (DG), area CA3, and area CA1, each having distinct physiological roles. The DG “filters” out aberrant or excessive input to the hippocampus and limits this activity from propagating further along the hippocampal circuit. […]
It is believed that the DG acts as a filter because it is extraordinarily resistant to the generation of synchronized bursting characteristic of epileptic seizures. […] Making use of fluorescent voltage sensitive dyes as a measure of hippocampal neuronal activity, a straightforward relationship has been devised in order to quantify the efficacy of dentate gyrus filtering capacity. “Throughput Index” (TI) is defined as the amount of fluorescence in the hilus divided by the fluorescence in the upper (suprapyramidal) blade of the dentate gyrus induced by afferent (perforant path) stimulation. […]

NCCCC(=O)O [GABA, gamma-aminobutyric acid]
membrane potential response to iontophoresed GABA ([1]; DG neurons from naïve or sham animals, GABA 100 μM): −14±0.7 mV | membrane potential response to iontophoresed GABA ([1]; DG neurons in slices from injured (FPI) animals): depolarizing response

CCCC(=O)O[C@@H]1[C@@H](C)[C@@]2(O)[C@@H](C=C(CO)C[C@]3(O)C(=O)C(C)=C[C@@H]23)[C@@H]2C(C)(C)[C@]12OC(=O)CCC [PDBu, phorbol 12,13-dibutyrate]
effect on dentate gyrus throughput index (TI) ([2]; slices from brain injured (FPI) animals): significantly (p<0.05) reduces | effect on DG filtering (TI) ([2]; slices from sham animals): does not affect

CCCCNc1cc(C(=O)O)cc(S(N)(=O)=O)c1Oc1ccccc1 [bumetanide]
GABA response in the presence of bumetanide compared to GABA alone ([1]; slices from sham animals, bumetanide 10 μM): 39% | response to focally applied GABA in the presence of bumetanide ([1]; slices from sham animals, bumetanide 10 μM bath applied, n=15): −5±3.1 mV
